Test results published in publication PMC7756341, “Liposomal FRET Assay Identifies Potent Drug‐Like Inhibitors of the Ceramide Transport Protein (CERT)” (Chemistry (Weinheim an Der Bergstrasse, Germany), 2020).
“And” between values parts separate entries of the source, which are not always exact repeats. Identical values can stand only once.

What was measured:
HeLa cells [1] = test: Cellular localization of BODIPY-ceramide by confocal microscopy; format: cell-based; settings: 10 µM inhibitor, 2 h
Procedure: 5.1 Cellular Localization of BODIPY-Ceramide
HeLa cells were seeded in 8 well chamber slides (ibidi µ-Slide 8 Well) in RPMI 1640 medium supplemented with 10% (v/v) heat‐inactivated FCS, 1 mM sodium pyruvate and 2 mM L-glutamine at 37 °C and 5% (v/v) CO2 in a humidified incubator. The day after, cells were incubated with inhibitors for 2 h at a concentration of 10 µM or left untreated by replacing the medium with fresh medium supplemented with the respective inhibitors. After 2 h of incubation, BODIPY FL C5-ceramide (Thermo Fisher) was added to a final concentration of 0,25 µM and imaging was immediately done using an LSM 780 laser scanning confocal microscope (Carl Zeiss). No additional wash steps were performed. After 1 h of incubation, DNA was counterstained using Hoechst 33342. For quantification of BODIPY-Ceramide trafficking, cells were transfected with pECFP-GalT the day before inhibitor incubation for the expression of an eCFP fusion of the human galactosyltransferase (GalT; amino acids 1-60), which localizes at the Golgi apparatus. After incubation with the respective inhibitors (see above), cells were imaged at 30 min post addition of BODIPY FL C5-ceramide. Mean BODIPY intensities of regions of interest surrounding eCFP-GalT-positive Golgi stacks were measured (40 cells per biological replicate, 4 biological replicates in total) using ImageJ software (Rasband, W.S., ImageJ, U. S. National Institutes of Health, Bethesda, Maryland, USA, https://imagej.nih.gov/ij/, 1997-2018) and divided by the total BODIPY intensity detected in the field of view. Quantification (Fig 10B) is expressed as normalized intensity ratio (GA/total).
Figure S10. A Uptake of BODIPY FL C5-ceramide to HeLa cells assessed by normalized fluorescence intensity B Distribution of BODIPY FL C5-ceramide by normalized fluorescence […]
(§1) (1 picture or pasted object on this page, not shown here)
Figure S11. BODIPY-Ceramide trafficking. Confocal images showing distribution of BODIPY FL C5-ceramide (green) and Golgi apparatus costaining (eCFP-GalT; blue) in HeLa cells pretreated with 10 µM of respective inhibitors or left untreated. Figures show representative images (n = 4 biological replicates with 40 cells per biological replicate); scale bars, 10 µm.

HeLa cells [2] = test: Sphingolipid content of treated HeLa cells by quantitative mass spectrometry; format: cell-based; settings: for Cer16 / Cer18 / Cer20 / Cer22 / Cer24 / Cer24:1 / Cer total / S1P / SM16 / SM18 / SM20 / SM22 / SM24 / SM24:1 / SM total / Sph / ratio total SM/Cer: HeLa, 42h, single replicates; for Cer16 / Cer18 / Cer20 / Cer22 / Cer24 / Cer24:1 / Cer total / S1P / SM16 / SM18 / SM20 / SM22 / SM24 / SM24:1 / SM total / Sph: 500.000 cells per sample
Procedure: 5.2 Cellular experiment for lipidomic analysis
Hela cells were cultured in six well plates (177000 cells per well) under standard growth conditions (DMEM with 4mM L-glutamine, 10% FBS, 1% Penicillin-Streptomycin; CO2 incubator with […]
37°C, 5% CO2). […]
After incubation, […]
the adherent cells were washed twice with ice-cold PBS and harvested by treatment with trypsin.
Cells were counted using a Countess II cell counter ( Invitrogen) and adjusted to 500.000 cells per sample. Each sample was then treated as described below.
6. Details for experimental lipidomics
Cells were subjected to lipid extraction using 1.5 mL methanol/chloroform (2:1, v:v) as described. The extraction solvent contained C17-ceramide (Cer17) and C16 -d31-sphingomyelin (d31-SM16) (both Avanti Polar Lipids, Alabaster, USA) as internal standards. Chromatographic separations were achieved on a 1260 Infinity HPLC (Agilent Technologies, Waldbronn, Germany) equipped with a Poroshell 120 EC-C8 column (3.0 × 150 mm, 2.7 µm; Agilent Technologies). A mobile phase system consisting of water (solvent A) and acetonitrile/methanol (1:1, v:v; solvent B), both acidified with 0.1% formic acid, was used for gradient elution at an initial composition of 40:60 (A:B, v:v) and a flow rate of 0.5 mL/min. MS/MS analyses were carried out using a 6490 triple-quadrupole mass spectrometer (Agilent Technologies) operating in the positive electrospray ionization mode (ESI+). The following ion source parameters were set: sheath gas temperature, 375 °C; sheath gas flow, 12 L/min of nitrogen; nebulizer pressure, 30 psi; drying gas temperature, 200 °C; drying gas flow, 15 L/min of nitrogen; capillary voltage, 4000 V; nozzle voltage, 1500 V; iFunnel high pressure RF voltage, 150 V and iFunnel low pressure RF voltage, 60 V. The following mass transitions were recorded (collision energies of 25 eV for all transitions): ceramides: m/z […]
with MassHunter Software (Agilent Technologies). Significance of differences between two samples was calculated by student’s t -test. Asterisks indicate significant differences between treated and untreated samples: * p<0.05; ** p<0.01; *** p<0.005.
Table S1. Sphingolipid content of treated cells.
as §1

Structure (SMILES): O=C(NC1CCN(CCCCC2(C(=O)NCC(F)(F)F)c3ccccc3-c3ccccc32)CC1)c1ccccc1-c1ccc(C(F)(F)F)cc1 [8E8, lomitapide]
- effect on intracellular distribution of BODIPY-Cer (HeLa cells [1]): significantly influenced
- effect on sphingomyelin at 5 μM (HeLa cells [2]; HeLa cells, 5 μM): drastic reduction
- effect on total sphingomyelin (HeLa cells [2]; HeLa cells, 48 hours, serum-reduced medium): dose‐dependent reduction
- potency on relation of total sphingomyelin to ceramide compared to HPA-12 (HeLa cells [2]; HeLa cells, all concentrations): increased potency
- Cer16 (HeLa cells [2]; 1 µM): 66,02 pmol/sample and 57,09 pmol/sample and 60,15 pmol/sample
- Cer18 (HeLa cells [2]; 1 µM): 7,66 pmol/sample and 6,67 pmol/sample and 6,95 pmol/sample
- Cer20 (HeLa cells [2]; 1 µM): 2,25 pmol/sample and 1,77 pmol/sample and 2,84 pmol/sample
- Cer22 (HeLa cells [2]; 1 µM): 14,47 pmol/sample and 13,05 pmol/sample and 13,35 pmol/sample
- Cer24 (HeLa cells [2]; 1 µM): 34,96 pmol/sample and 30,93 pmol/sample and 30,90 pmol/sample
- Cer24:1 (HeLa cells [2]; 1 µM): 73,09 pmol/sample and 65,48 pmol/sample and 68,22 pmol/sample
- Cer total (HeLa cells [2]; 1 µM): 198,45 pmol/sample and 178,06 pmol/sample and 179,34 pmol/sample
- S1P (HeLa cells [2]; 1 µM): 1,12 pmol/sample and 1,00 pmol/sample and 0,85 pmol/sample
- SM16 (HeLa cells [2]; 1 µM): 1825,61 pmol/sample and 1823,48 pmol/sample and 1739,12 pmol/sample
- SM18 (HeLa cells [2]; 1 µM): 59,37 pmol/sample and 58,79 pmol/sample and 52,57 pmol/sample
- SM20 (HeLa cells [2]; 1 µM): 20,60 pmol/sample and 20,35 pmol/sample and 17,81 pmol/sample
- SM22 (HeLa cells [2]; 1 µM): 115,26 pmol/sample and 124,65 pmol/sample and 105,99 pmol/sample
- SM24 (HeLa cells [2]; 1 µM): 173,05 pmol/sample and 183,46 pmol/sample and 158,17 pmol/sample
- SM24:1 (HeLa cells [2]; 1 µM): 817,85 pmol/sample and 842,40 pmol/sample and 760,17 pmol/sample
- SM total (HeLa cells [2]; 1 µM): 3011,74 pmol/sample and 3053,13 pmol/sample and 2833,83 pmol/sample
- Sph (HeLa cells [2]; 1 µM): 3,57 pmol/sample and 3,81 pmol/sample and 3,42 pmol/sample
- ratio total SM/Cer (HeLa cells [2]; 1 µM): 16,8 and 15,4 and 15,9
- Cer16 (HeLa cells [2]; 2.5 µM): 74,51 pmol/sample and 82,98 pmol/sample and 79,41 pmol/sample
- Cer18 (HeLa cells [2]; 2.5 µM): 8,90 pmol/sample and 10,02 pmol/sample and 9,50 pmol/sample
- Cer20 (HeLa cells [2]; 2.5 µM): 2,09 pmol/sample and 2,26 pmol/sample and 2,11 pmol/sample
- Cer22 (HeLa cells [2]; 2.5 µM): 14,83 pmol/sample and 17,07 pmol/sample and 15,69 pmol/sample
- Cer24 (HeLa cells [2]; 2.5 µM): 32,62 pmol/sample and 36,00 pmol/sample and 36,33 pmol/sample
- Cer24:1 (HeLa cells [2]; 2.5 µM): 74,15 pmol/sample and 79,98 pmol/sample and 77,75 pmol/sample
- Cer total (HeLa cells [2]; 2.5 µM): 207,10 pmol/sample and 228,30 pmol/sample and 220,79 pmol/sample
- S1P (HeLa cells [2]; 2.5 µM): 0,75 pmol/sample and 1,06 pmol/sample and 1,09 pmol/sample
- SM16 (HeLa cells [2]; 2.5 µM): 1630,84 pmol/sample and 1823,72 pmol/sample and 1666,50 pmol/sample
- SM18 (HeLa cells [2]; 2.5 µM): 53,11 pmol/sample and 57,73 pmol/sample and 55,13 pmol/sample
- SM20 (HeLa cells [2]; 2.5 µM): 19,44 pmol/sample and 21,11 pmol/sample and 18,70 pmol/sample
- SM22 (HeLa cells [2]; 2.5 µM): 103,91 pmol/sample and 113,22 pmol/sample and 105,74 pmol/sample
- SM24 (HeLa cells [2]; 2.5 µM): 157,53 pmol/sample and 168,83 pmol/sample and 156,81 pmol/sample
- SM24:1 (HeLa cells [2]; 2.5 µM): 722,25 pmol/sample and 731,59 pmol/sample and 797,90 pmol/sample
- SM total (HeLa cells [2]; 2.5 µM): 2725,14 pmol/sample and 2696,43 pmol/sample and 2982,51 pmol/sample
- Sph (HeLa cells [2]; 2.5 µM): 3,63 pmol/sample and 3,39 pmol/sample and 3,50 pmol/sample
- ratio total SM/Cer (HeLa cells [2]; 2.5 µM): 12,3 and 13,0 and 13,1
- Cer16 (HeLa cells [2]; 5 µM): 89,79 pmol/sample and 129,48 pmol/sample and 69,03 pmol/sample
- Cer18 (HeLa cells [2]; 5 µM): 7,26 pmol/sample and 11,79 pmol/sample and 5,12 pmol/sample
- Cer20 (HeLa cells [2]; 5 µM): 1,69 pmol/sample and 2,84 pmol/sample and 1,31 pmol/sample
- Cer22 (HeLa cells [2]; 5 µM): 12,62 pmol/sample and 18,55 pmol/sample and 9,43 pmol/sample
- Cer24 (HeLa cells [2]; 5 µM): 22,56 pmol/sample and 31,76 pmol/sample and 18,74 pmol/sample
- Cer24:1 (HeLa cells [2]; 5 µM): 66,19 pmol/sample and 87,40 pmol/sample and 47,19 pmol/sample
- Cer total (HeLa cells [2]; 5 µM): 200,11 pmol/sample and 281,82 pmol/sample and 150,81 pmol/sample
- S1P (HeLa cells [2]; 5 µM): 0,37 pmol/sample and 0,42 pmol/sample and 0,53 pmol/sample
- SM16 (HeLa cells [2]; 5 µM): 450,01 pmol/sample and 691,68 pmol/sample and 345,52 pmol/sample
- SM18 (HeLa cells [2]; 5 µM): 25,94 pmol/sample and 35,37 pmol/sample and 18,65 pmol/sample
- SM20 (HeLa cells [2]; 5 µM): 8,48 pmol/sample and 11,39 pmol/sample and 5,85 pmol/sample
- SM22 (HeLa cells [2]; 5 µM): 36,80 pmol/sample and 52,48 pmol/sample and 26,91 pmol/sample
- SM24 (HeLa cells [2]; 5 µM): 50,34 pmol/sample and 70,92 pmol/sample and 33,38 pmol/sample
- SM24:1 (HeLa cells [2]; 5 µM): 200,60 pmol/sample and 298,06 pmol/sample and 137,99 pmol/sample
- SM total (HeLa cells [2]; 5 µM): 772,16 pmol/sample and 1159,90 pmol/sample and 568,29 pmol/sample
- Sph (HeLa cells [2]; 5 µM): 3,46 pmol/sample and 3,80 pmol/sample and 3,91 pmol/sample
- ratio total SM/Cer (HeLa cells [2]; 5 µM): 3,9 and 4,1 and 3,8
